Results: article PMC12716163 (Nanoscale, 2024)

Legend:
PSMA = PSMA (Homo sapiens, UniProt Q04609); settings: irreversible inhibitor; cited from earlier work
Aqueous solubility = assay type: physicochemical
c-Met = c-Met (Homo sapiens, UniProt P08581); experiment: c-Met inhibition IC50; assay type: biochemical; settings: read-out: c-Met inhibitory activity IC50
PC3-PIP PSMA (+) cells = experiment: CellTiter-Glo cell viability; assay type: cell-based, human; settings: 72 H, equivalent drug bases

c-Met, sequence (P08581 25-1390): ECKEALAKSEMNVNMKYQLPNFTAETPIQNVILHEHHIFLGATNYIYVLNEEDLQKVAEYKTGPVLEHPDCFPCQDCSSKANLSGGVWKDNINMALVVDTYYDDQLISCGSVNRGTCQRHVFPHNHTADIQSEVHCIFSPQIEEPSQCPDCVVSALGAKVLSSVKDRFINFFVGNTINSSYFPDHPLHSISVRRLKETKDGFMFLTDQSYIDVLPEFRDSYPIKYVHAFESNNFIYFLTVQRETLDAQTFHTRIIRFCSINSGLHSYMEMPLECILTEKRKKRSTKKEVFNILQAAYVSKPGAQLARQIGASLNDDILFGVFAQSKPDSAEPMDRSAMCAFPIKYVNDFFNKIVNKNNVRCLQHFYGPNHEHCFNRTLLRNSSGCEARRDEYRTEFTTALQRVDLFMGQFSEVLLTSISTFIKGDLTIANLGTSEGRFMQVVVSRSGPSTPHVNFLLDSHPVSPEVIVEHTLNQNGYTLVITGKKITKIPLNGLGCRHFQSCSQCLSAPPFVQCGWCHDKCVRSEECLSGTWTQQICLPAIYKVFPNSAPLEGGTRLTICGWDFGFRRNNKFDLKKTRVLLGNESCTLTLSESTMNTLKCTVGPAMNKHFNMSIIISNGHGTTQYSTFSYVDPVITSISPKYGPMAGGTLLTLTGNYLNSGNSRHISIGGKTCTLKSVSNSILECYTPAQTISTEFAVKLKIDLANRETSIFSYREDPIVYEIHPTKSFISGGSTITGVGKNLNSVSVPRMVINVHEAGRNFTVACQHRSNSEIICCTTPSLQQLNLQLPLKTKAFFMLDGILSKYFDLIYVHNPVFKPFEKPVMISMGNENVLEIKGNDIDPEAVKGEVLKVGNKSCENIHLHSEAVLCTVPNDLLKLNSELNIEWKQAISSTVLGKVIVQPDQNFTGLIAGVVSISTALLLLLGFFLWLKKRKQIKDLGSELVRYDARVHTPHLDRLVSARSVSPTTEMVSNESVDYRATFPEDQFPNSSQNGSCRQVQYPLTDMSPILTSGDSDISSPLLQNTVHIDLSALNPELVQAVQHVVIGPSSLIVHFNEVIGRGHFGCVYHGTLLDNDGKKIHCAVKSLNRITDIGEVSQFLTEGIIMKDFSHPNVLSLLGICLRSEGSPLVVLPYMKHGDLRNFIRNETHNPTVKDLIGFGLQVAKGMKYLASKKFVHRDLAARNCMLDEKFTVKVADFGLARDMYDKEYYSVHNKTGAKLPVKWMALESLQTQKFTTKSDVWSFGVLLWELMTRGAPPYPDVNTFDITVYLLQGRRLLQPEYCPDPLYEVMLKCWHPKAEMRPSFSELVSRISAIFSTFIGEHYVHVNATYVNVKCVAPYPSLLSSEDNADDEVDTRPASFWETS
PSMA, sequence (Q04609 whole entry): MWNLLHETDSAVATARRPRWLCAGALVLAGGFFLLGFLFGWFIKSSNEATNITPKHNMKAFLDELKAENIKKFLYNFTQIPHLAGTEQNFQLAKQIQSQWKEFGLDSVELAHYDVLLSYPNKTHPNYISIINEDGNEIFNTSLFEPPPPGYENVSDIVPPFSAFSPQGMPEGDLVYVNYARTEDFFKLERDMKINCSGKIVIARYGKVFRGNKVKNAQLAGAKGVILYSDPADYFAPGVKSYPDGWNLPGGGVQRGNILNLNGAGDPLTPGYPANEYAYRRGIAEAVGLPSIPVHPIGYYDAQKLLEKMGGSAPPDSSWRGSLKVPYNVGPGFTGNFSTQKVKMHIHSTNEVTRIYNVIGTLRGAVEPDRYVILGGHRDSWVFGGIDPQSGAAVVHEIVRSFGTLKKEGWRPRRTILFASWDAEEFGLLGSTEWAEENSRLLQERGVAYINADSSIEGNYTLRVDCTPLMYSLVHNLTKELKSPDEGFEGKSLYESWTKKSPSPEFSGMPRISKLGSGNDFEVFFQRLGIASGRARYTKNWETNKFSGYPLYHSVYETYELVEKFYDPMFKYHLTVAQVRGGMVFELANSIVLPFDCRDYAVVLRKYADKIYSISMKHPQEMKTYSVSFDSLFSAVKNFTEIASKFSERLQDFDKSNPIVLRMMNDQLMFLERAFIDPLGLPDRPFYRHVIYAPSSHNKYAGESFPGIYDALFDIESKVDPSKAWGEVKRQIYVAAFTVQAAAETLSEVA

Row | aqueous solubility (Aqueous solubility) | IC50 (c-Met) | anti-proliferative IC50 (PC3-PIP PSMA (+) cells) | Compound | PSMA affinity (PSMA)
1 |  |  |  | O=C(O)CC[C@H](NP(=O)(O)OCCC[C@H](NC(=O)CC[C@H](NC(=O)CCCCCNC(=O)c1ccc(F)cc1)C(=O)O)C(=O)O)C(=O)O [CTT 1057] | nanomolar affinity
2 | poor aqueous solubility |  |  | COc1cc2nccc(Oc3ccc(NC(=O)C4(C(=O)Nc5ccc(F)cc5)CC4)cc3)c2cc1OC [Cabo, cabozantinib, reference compound] | 
3 | poor aqueous solubility | 0.0263 µM | 77.30 ± 4.35 µg/mL | COc1cc2c(Oc3ccc(NC(=O)C4(C(=O)Nc5ccc(F)cc5)CC4)cc3)ccnc2cc1O [Cabo-OH] | 
